Biological target: T1, human NHE3 (Homo sapiens, UniProt P48764)
T1 construct: myc; expressed in transfected cells
T1 sequence (P48764 26-834): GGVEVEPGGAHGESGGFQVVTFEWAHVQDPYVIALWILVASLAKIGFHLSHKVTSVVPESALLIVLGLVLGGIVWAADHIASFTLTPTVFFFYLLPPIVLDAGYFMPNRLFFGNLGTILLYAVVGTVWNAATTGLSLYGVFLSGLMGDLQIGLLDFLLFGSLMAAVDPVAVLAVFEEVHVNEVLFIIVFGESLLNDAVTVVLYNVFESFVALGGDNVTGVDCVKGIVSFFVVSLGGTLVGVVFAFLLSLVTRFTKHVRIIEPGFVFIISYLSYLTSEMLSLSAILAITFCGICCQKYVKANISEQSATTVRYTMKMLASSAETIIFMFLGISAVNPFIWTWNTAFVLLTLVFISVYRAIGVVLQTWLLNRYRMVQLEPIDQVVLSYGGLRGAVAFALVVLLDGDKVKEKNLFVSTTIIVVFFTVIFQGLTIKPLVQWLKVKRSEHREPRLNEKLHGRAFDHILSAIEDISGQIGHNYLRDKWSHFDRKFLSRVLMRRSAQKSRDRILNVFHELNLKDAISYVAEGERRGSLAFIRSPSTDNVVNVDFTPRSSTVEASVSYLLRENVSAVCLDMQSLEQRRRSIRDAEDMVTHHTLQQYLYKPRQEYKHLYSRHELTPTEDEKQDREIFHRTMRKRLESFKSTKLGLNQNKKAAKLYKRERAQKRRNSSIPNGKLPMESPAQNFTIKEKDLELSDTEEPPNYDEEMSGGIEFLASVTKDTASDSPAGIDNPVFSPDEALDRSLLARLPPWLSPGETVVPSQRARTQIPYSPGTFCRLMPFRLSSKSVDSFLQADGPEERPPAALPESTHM
Assay: In vitro NHE3 inhibition activity (intracellular pH recovery, BCECF-AM, NHD C8 cells overexpressing human NHE3)
Assay type: cell-based
Conditions: geometric mean of individual IC50
From the text: In Vitro NHE3 Inhibition Activity
To create an NHE3 assay, cells selectively expressing NHE3 are generated by overexpressing human NHE3 in an endogenously NHE-deficient cell line. The NHE-deficient cell line is created by chemical-induced mutagenesis. After the mutagenesis, NHE-deficient cells are selected by subjecting lithium (Li) loaded cells to an acidic extracellular environment. Under these conditions, NHE exchanges intracellular Li^+ for extracellular protons, thus only NHE-deficient cells can avoid a toxic intracellular acidosis and survive.
An NHE-deficient cell line, NHD C8, is generated by mutagenesis and selection from the cell line Dede (ATCC® CCL-39™). The mutagenesis is induced by treating Dede CCL-39 cells with EMS (Sigma-Aldrich) in growth media at a final concentration of 500 μg/ml for 20 h. […]
To measure NHE activity, the intracellular pH of the cells is reduced by addition of NH4Cl. The sodium-dependent intracellular pH change is then measured by the intracellular pH-sensitive fluorescein dye, BCECF-AM (Molecular Probes-ThermoFisher Scientific). […] The plate is immediately read for fluorescent intensity at an excitation wavelength of 505 nm and emission wavelength of 550 nm. […]

IC50: 5.76 nM
SMILES: CN1Cc2c(Cl)cc(Cl)cc2[C@H](c2cccc(S(=O)(=O)NCCOCCOCCN/C(=N\C(N)=O)NCCCCN/C(=N/C(N)=O)NCCOCCOCCNS(=O)(=O)c3cccc([C@@H]4CN(C)Cc5c(Cl)cc(Cl)cc54)c3)c2)C1.Cl.Cl [Example 2, [[4-[[N′-Carbamoyl-N-[2-[2-[2-[[3-[(4S)-6,8-dichloro-2-methyl-3,4-dihydro-1H-isoquinolin-4-yl]phenyl]sulfonylamino]ethoxy]ethoxy]ethyl]carbamimidoyl]amino]butylamino]-[2-[2-[2-[[3-[(4S)-6,8-dichloro-2-methyl-3,4-dihydro-1H-isoquinolin-4-yl]phenyl]sulfonylamino]ethoxy]ethoxy]ethylamino]methylene]urea dihydrochloride]

Source: patent publication US12428377B2, “Sodium-hydrogen exchanger 3 inhibitor compounds” (Eli Lilly and Company, priority 2019, dated 2025)
